How the values were obtained:
Format in all cases: cell-based
HepaRG cells = assay: HepaRG-based assay: 3H-taurocholic acid uptake in differentiated HepaRG cells; settings: Homo sapiens, HepaRG, 0.3 μM 3H-taurocholic acid and 7.5 μM cold taurocholic acid, 30 minutes
Procedure: HepaRG-Based Assay Protocol
A cryopreserved vial of differentiated HepaRG cells (Biopredic International HPR116080) was thawed in HepaRG Thawing/Plating/General Purpose Medium (Biopredic International ADD670C) supplemented with 200 mM Glutamax (Gibco 35050061) following the protocol provided by Biopredic International. 70,000 cells per well were seeded in 96-wells plate (Corning CLS3809) in 100 μL of HepaRG Thawing/Plating/General Purpose Medium supplemented with 200 mM Glutamax and incubated at 37° C. in 5% CO2 for 24 hours. Post incubation, the seeding media was replaced by HepaRG Maintenance/Metabolism Medium (Biopredic International ADD620C) and incubated for 6 days, with fresh HepaRG Maintenance/Metabolism Medium replenishment every 48 hours. After 7 days incubation post seeding, incubation media was decanted from the wells and cells were washed two times with 250 μL of William's E Basal Media (Gibco 12551032). After decanting William's E Basal Media each time, plates were tapped against paper towel to ensure maximum removal of residual media.
Incubation mix was prepared by adding test inhibitor dilutions (3-fold serial dilution in DMSO (Sigma D2650)) in William's E media (basal) containing 0.3 μM 3H-taurocholic acid (ARC ART-1368) and 7.5 μM cold taurocholic acid (Sigma T4009) (maintaining 0.2% final DMSO concentration). 50 μl of incubation mix containing test inhibitors was then added to the wells (in duplicate) and the plates were incubated for 30 minutes in 5% CO2 incubator at 37° C. After incubation, the reaction was stopped by keeping the plates on ice water mix for 2-3 minutes and then the incubation mix was aspirated completely from the wells. The wells were washed two times with 250 μL of chilled unlabelled 1 mM taurocholic acid dissolved in HEPES (Gibco 15630080)-buffered (10 mM) HBSS (Gibco 14175079) (pH 7.4). The plates were tapped against a paper towel after every wash to ensure maximum removal of blocking buffer.
(§1) 100 μL of MicroScint-20 (PerkinElmer 6013621) was added to the wells and kept overnight at room temperature before reading the plates in TopCount NXT™ Microplate Scintillation and Luminescence Counter from PerkinElmer under 3H Test protocol (set at 120 seconds reading time per well, with normal plate orientation).
(§2) Preparation of Test Compound Dilutions
(§3) All test compounds were provided in powder form at room temperature. 10 mM DMSO stocks of the test compounds were prepared, aliquoted and stored at −20° C. From the 10 mM DMSO stock of the compounds, a 3-fold serial dilution in DMSO was prepared to get a total of 10 dilutions of the test compounds. 0.5 μL of this dilution in DMSO was added to 250 μL of FBS-free basal media containing 3H-taurocholic acid and cold taurocholic acid to prepare the incubation mixture.

Human ASBT = biological target: T1, Human ASBT (Homo sapiens, UniProt Q12908); assay: ASBT (h/m) assay: 3H-taurocholic acid uptake in human ASBT-overexpressing cells; settings: 0.25 μM 3H-taurocholic acid and 5 μM cold taurocholic acid, 20 minutes, read-out: hASBT IC50
T1 construct: expressed in transfected cells; kept under Puromycin selection
T1 sequence (Q12908 1-348): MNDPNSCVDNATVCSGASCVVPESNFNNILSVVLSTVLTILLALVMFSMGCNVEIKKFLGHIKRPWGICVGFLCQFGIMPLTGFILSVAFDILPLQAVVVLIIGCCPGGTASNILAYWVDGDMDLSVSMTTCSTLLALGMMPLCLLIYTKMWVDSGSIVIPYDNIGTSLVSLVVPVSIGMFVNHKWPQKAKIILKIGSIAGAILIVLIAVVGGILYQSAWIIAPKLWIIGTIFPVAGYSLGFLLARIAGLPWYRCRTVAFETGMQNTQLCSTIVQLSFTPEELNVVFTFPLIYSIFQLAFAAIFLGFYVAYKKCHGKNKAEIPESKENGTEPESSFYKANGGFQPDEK
Procedure: ASBT (h/m) Assay Protocol
10,000 cells (Human or Mouse ASBT-overexpressing cells) were seeded in 96-wells plate (Corning CLS3809) in 200 μL MEM-alpha medium (Gibco 12571-063) supplemented with 10% FBS (Gibco 10438026) containing Puromycin (Gibco A1113803) (10 μg/mL) and incubated at 37° C. in 5% CO2 for 48 hours. After incubation, media was decanted from the wells and cells were washed two times with 300 μL of basal MEM-alpha medium (FBS-free). After decanting basal MEM-alpha medium each time, plates were tapped against paper towel to ensure maximum removal of residual media. Test inhibitor dilutions (highest test concentration being 10 μM, 3-fold serial dilution, 10 points) prepared in DMSO (Sigma D2650) were added in incubation mix (maintaining 0.2% final DMSO concentration) containing 0.25 μM 3H-taurocholic acid (ARC ART-1368) and 5 μM of cold taurocholic acid (Sigma T4009). 50 μL of incubation mix containing test inhibitors was then added to the wells (in duplicate) and the plates were incubated for 20 minutes in a CO2 incubator at 37° C. After incubation, the reaction was stopped by keeping the plates on ice water mix for 2-3 minutes and then the incubation mix was aspirated completely from the wells. The wells were washed two times with 250 μL of chilled unlabelled 1 mM taurocholic acid dissolved in HEPES (Gibco 15630080)-buffered (10 mM) HBSS (Gibco 14175079) (pH 7.4). The plates were tapped against a paper towel after every wash to ensure maximum removal of blocking buffer.
100 μL of MicroScint-20 (PerkinElmer 6013621) was added to the wells and kept overnight at room temperature before reading the plates in TopCount NXT™ Microplate Scintillation and Luminescence Counter from PerkinElmer under 3H Test protocol (set at 120 seconds reading time per well).
as §2, §3

Human LBAT = biological target: T2, Human LBAT (Homo sapiens, UniProt Q14973); assay: LBAT (h/m) assay: 3H-taurocholic acid uptake in human LBAT-overexpressing cells; settings: 0.3 μM 3H-taurocholic acid and 7.5 μM cold taurocholic acid, 20 minutes, read-out: hLBAT IC50
T2 construct: expressed in transfected cells; kept under Geneticin selection
T2 sequence (Q14973 1-349): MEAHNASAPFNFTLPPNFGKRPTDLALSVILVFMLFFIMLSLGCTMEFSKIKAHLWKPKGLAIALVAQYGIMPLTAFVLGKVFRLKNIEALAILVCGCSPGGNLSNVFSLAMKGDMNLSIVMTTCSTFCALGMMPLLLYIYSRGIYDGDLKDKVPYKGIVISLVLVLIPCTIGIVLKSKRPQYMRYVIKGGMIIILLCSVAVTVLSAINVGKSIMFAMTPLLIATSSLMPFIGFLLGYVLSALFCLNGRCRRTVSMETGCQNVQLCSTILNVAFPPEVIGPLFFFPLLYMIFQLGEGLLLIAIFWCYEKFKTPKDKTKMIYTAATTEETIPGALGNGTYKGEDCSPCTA
Procedure: LBAT (h/m) Assay Protocol
20,000 cells (Human or Mouse LBAT-overexpressing cells) were seeded in 96-wells plate (Corning CLS3809) in 100 μL MEM-alpha medium (Gibco 12571-063) supplemented with 10% FBS (Gibco 10438026) containing Geneticin (Gibco 10131-027) (1 mg/mL) and incubated at 37° C. in 5% CO2 for 24 hours. After incubation, media was decanted from the wells and cells were washed two times with 300 μL of basal MEM-alpha medium (FBS-free). After decanting basal MEM-alpha medium each time, plates were tapped against paper towel to ensure maximum removal of residual media. For human LBAT, incubation mix was prepared by adding test inhibitor dilutions (3-fold serial dilution in DMSO (Sigma D2650), 10 points) in MEM-alpha (without FBS) containing 0.3 μM 3H-taurocholic acid (ARC ART-1368) and 7.5 μM cold taurocholic acid (Sigma T4009) (maintaining 0.2% final DMSO concentration). For mouse LBAT, incubation mix was prepared by adding test inhibitor dilutions (3-fold serial dilution in DMSO, 10 points) in MEM-alpha (without FBS) containing 0.3 μM 3H-taurocholic acid and 25 μM cold taurocholic acid maintaining 0.2% final DMSO concentration).
50 μL of incubation mix containing test inhibitors was then added to the wells (in duplicate) and the plates were incubated for 20 minutes in a CO2 incubator at 37° C. After incubation, the reaction was stopped by keeping the plates on ice water mix for 2-3 minutes and then the incubation mix was aspirated completely from the wells. The wells were washed two times with 250 μL of chilled unlabelled 1 mM taurocholic acid dissolved in HEPES (Gibco 15630080)-buffered (10 mM) HBSS (Gibco 14175079) (pH 7.4). The plates were tapped against a paper towel after every wash to ensure maximum removal of blocking buffer.
as §1, §2, §3

IC50 (HepaRG cells) [nM]	IC50 (Human ASBT) [nM]	IC50 (Human LBAT) [nM]	Structure (SMILES)
1030	33	82	CCCCC1(CC)CN(c2ccccc2)c2cc(SC)c(O/C=C/C(=O)O)cc2S(=O)(=O)C1 (racemic) [Example 16, (E)-3-((3-butyl-3-ethyl-7-(methylthio)-1,1-dioxido-5-phenyl-2,3,4,5-tetrahydro-1,5-benzothiazepin-8-yl)oxy)acrylic Acid]
336	26	8.3	CCCCC1(CC)CN(c2ccccc2)c2cc(SC)c(O/C=C(\F)C(=O)O)cc2S(=O)(=O)C1 (racemic) [Example 41, (Z)-3-((3-butyl-3-ethyl-7-(methylthio)-1,1-dioxido-5-phenyl-2,3,4,5-tetrahydro-1,5-benzothiazepin-8-yl)oxy)-2-fluoroacrylic Acid]
590	97	24	CCCCC1(CC)CN(c2ccccc2)c2cc(Cl)c(O/C=C(\F)C(=O)O)cc2S(=O)(=O)C1 (racemic) [Example 46, (Z)-3-((3-butyl-7-chloro-3-ethyl-1,1-dioxido-5-phenyl-2,3,4,5-tetrahydro-1,5-benzothiazepin-8-yl)oxy)-2-fluoroacrylic Acid]
336		107	CCCCC1(CCCC)CN(c2ccc(NC(=O)CC(C)(C)C)cc2)c2cc(SC)c(O/C=C/C(=O)O)cc2S(=O)(=O)C1 [Example 30, (E)-3-((3,3-dibutyl-5-(4-(3,3-dimethylbutanamido)phenyl)-7-(methylthio)-1,1-dioxido-2,3,4,5-tetrahydro-1,5-benzothiazepin-8-yl)oxy)acrylic Acid]
310		17	CCCCC1(CCCC)CN(c2ccc(NC(=O)C(C)C)cc2)c2cc(SC)c(O/C=C(\F)C(=O)O)cc2S(=O)(=O)C1 [Example 31, (Z)-3-((3,3-dibutyl-5-(4-isobutyramidophenyl)-7-(methylthio)-1,1-dioxido-2,3,4,5-tetrahydro-1,5-benzothiazepin-8-yl)oxy)-2-fluoroacrylic Acid]
691		214	CCCCC1(CCCC)CN(c2ccc(NC(=O)C(C)C)cc2)c2cc(SC)c(O/C=C/C(=O)O)cc2S(=O)(=O)C1 [Example 33, (E)-3-((3,3-dibutyl-5-(4-isobutyramidophenyl)-7-(methylthio)-1,1-dioxido-2,3,4,5-tetrahydro-1,5-benzothiazepin-8-yl)oxy)acrylic Acid]
469		76	CCCCC1(CC)CN(c2ccc(NC(=O)C(C)(C)C)cc2)c2cc(SC)c(O/C=C/C(=O)O)cc2S(=O)(=O)C1 (stereo not shown) [Example 34, (E)-3-((3-butyl-3-ethyl-7-(methylthio)-1,1-dioxido-5-(4-pivalamidophenyl)-2,3,4,5-tetrahydro-1,5-benzothiazepin-8-yl)oxy)acrylic Acid]
590		66	CCCCC1(CCCC)CN(c2ccc(NC(=O)C3CCCC3)cc2)c2cc(SC)c(O/C=C(\F)C(=O)O)cc2S(=O)(=O)C1 [Example 35, (Z)-3-((3,3-dibutyl-5-(4-(cyclopentanecarboxamido)phenyl)-7-(methylthio)-1,1-dioxido-2,3,4,5-tetrahydro-1,5-benzothiazepin-8-yl)oxy)-2-fluoroacrylic Acid]
877		39	CCCCC1(CCCC)CN(c2ccc(NC(=O)C3CC3)cc2)c2cc(SC)c(O/C=C(\F)C(=O)O)cc2S(=O)(=O)C1 [Example 36, (Z)-3-((3,3-dibutyl-5-(4-(cyclopropanecarboxamido)phenyl)-7-(methylthio)-1,1-dioxido-2,3,4,5-tetrahydro-1,5-benzothiazepin-8-yl)oxy)-2-fluoroacrylic Acid]
454		122	CCCCC1(CC)CN(c2ccc(NC(=O)C3CCCC3)cc2)c2cc(SC)c(O/C=C/C(=O)O)cc2S(=O)(=O)C1 (stereo not shown) [Example 38, (E)-3-((3-butyl-5-(4-(cyclopentanecarboxamido)phenyl)-3-ethyl-7-(methylthio)-1,1-dioxido-2,3,4,5-tetrahydro-1,5-benzothiazepin-8-yl)oxy)acrylic Acid]
191		84	CCC1(CC)CN(c2ccc(NC(=O)C(C)(C)C)cc2)c2cc(SC)c(O/C=C(\F)C(=O)O)cc2S(=O)(=O)C1 [Example 52, (Z)-3-((3,3-diethyl-7-(methylthio)-1,1-dioxido-5-(4-pivalamidophenyl)-2,3,4,5-tetrahydro-1,5-benzothiazepin-8-yl)oxy)-2-fluoroacrylic Acid]

Source: patent US11306064B2, “Benzothia(di)azepine compounds and their use as bile acid modulators” (Albireo AB, priority 2018, dated 2022)
